Converted amounts (≈) assume the structure as drawn.
Test: Solubility limit of IAA in water
Format: physicochemical
Details: apparent, from the IAA concentration in the aqueous extract

With O=C(O)Cc1c[nH]c2ccccc12 [IAA, indole-3-acetic acid] the solubility was about 17 µg/mL (≈ 97 µM).
